The test system of experiment [1] is COX1. As to the kind of experiment: Treatment of human subject with Tempol, serum level of COX1. Type of experiment: in vivo. The conditions noted are these: 2000 mg per day for 180 days. On the procedure:
A 70-kilogram human subject over the age of 65 and having a cardiovascular disease is identified for an increased expression level of COX1. Or a 70-kilogram human subject over the age of 65 is known to have a cardiovascular disease and/or […] expression level of COX1. The human subject is administered a dose of 2000 mg of Tempol (or another nitroxide antioxidant) per day for 180 days. This may be administered in a single dose, or may be administered as a number of smaller doses over a 24-hour period: for example, four 500-mg doses at […]. Following treatment, the serum level of COX1, is decreased.
A 70-kilogram human subject at risk of developing colorectal cancer is identified for increased expression level of COX1. Or a 70-kilogram human subject is known to be at risk of developing colorectal cancer and/or have increased expression level of COX1. The human subject is administered a dose of 2000 mg of Tempol (or another nitroxide antioxidant) per day for 180 days. This may be administered in a single dose, or may be administered as a number of smaller doses over a 24-hour period: for example, four 500-mg doses at […]. Following treatment, the serum level of COX1, is decreased. […]
A 70-kilogram human subject having an infection (e.g., a bacterial, fungal, or viral infection) is identified for increased expression level of COX1. Or a 70-kilogram human subject is known to have an infection and/or have increased expression level of COX1. The human subject is administered a dose of 2000 mg of Tempol (or another nitroxide antioxidant) per day for 180 days. This may be administered in a single dose, or may be administered as a number of smaller doses over a 24-hour period: for example, four 500-mg doses at […]. Following treatment, the serum level of COX1, is decreased.

Experiment [2] concerns PTGS1 (COX1). Nature of the experiment: Effects of Tempol on gene expression in cardiac tissue, chip-based microarray. Type of experiment: in vivo. The conditions noted are these: mice, Tempol 5 mg/g of food from 14 to 31 months after birth. The procedure: To assess the effects of Tempol on gene expression, Tempol was administered to experimental mice at a dose of 5 mg/g of food from 14 months to 31 months after birth. Mice receiving the same food without the addition of Tempol were used as a negative control. At the age of 31 months, the experimental animals were sacrificed and the hearts were surgically removed. The expression of a broad spectrum of genes in the cardiac tissue was assessed using chip-based microarray technology. Such chips are well known in the art and are widely used to assess gene expression.

The results in this text go back to US20250041285A1, “MODIFYING THE […] OF A GENE ENCODING AN CYCLOOXYGENASE ENZYME BY TREATING A HUMAN SUBJECT WITH A NITROXIDE” (priority 2021, published 2025).

On to `CC1(C)CC(O)CC(C)(C)N1[O]` [Tempol, 4-hydroxy-2,2,6,6-tetramethylpiperidine-1-oxyl], for which the “serum level of COX1 following treatment” value is recorded as “decreased” in experiment [1] (Example 2: 70-kilogram human subject over the age of 65 with increased COX1 expression); “decreased” in experiment [1] (Example 3: 70-kilogram human subject with increased COX1 expression); “decreased” in experiment [1] (Example 4: 70-kilogram human subject over the age of 65 having a cardiovascular disease); “decreased” in experiment [1] (Example 5: 70-kilogram human subject at risk of developing colorectal cancer); “decreased” in experiment [1] (Example 6: 70-kilogram human subject at risk of developing an autoimmune disease (e.g., rheumatoid arthritis)); “decreased” in experiment [1] (Example 7: 70-kilogram human subject at risk of developing a condition due to aging). In addition, the “serum level of COX1 following treatment” value in experiment [1] (Example 8: 70-kilogram human subject at risk of developing a neurodegenerative disease (e.g., Parkinson's Disease)) is “decreased”; in experiment [1] (Example 9: 70-kilogram human subject having an infection (bacterial, fungal, or viral)) it was “decreased”. Also, the “Fold change (gene expression in cardiac tissue after Tempol administration)” value in experiment [2] (hearts at 31 months, vs same food without Tempol, P-value 0.006) is reported as −1.18. In experiment [2] (microarray), the “COX1 expression in cardiac tissue” value is “statistically significant decrease in expression”.
